Data on three molecules can be found in patent US10590460B2, “Selective enrichment medium for carbapenem-resistant bacteria” (priority 2008, dated 2020).

The test system of data set [1] is carbapenem-sensitive flora. As to the kind of experiment: Culture of carbapenem-sensitive or carbapenem-resistant strains on CHROMagar Orientation medium with a carbapenem. It is filed as cell-based. The method, then: Different strains of carbapenem-sensitive bacteria or carbapenem-resistant bacteria were cultured under three sets of conditions: • group 1: CHROMagar Orientation medium • group 2: CHROMagar Orientation medium in the presence of meropenem (0.065; 0.25; 1 or 4 mg/L); and • group 3: CHROMagar Orientation medium in the presence of imipenem (MSD, TIENAM (includes 50% imipenem) 0.0325; 0.125; 0.5 or 2 mg/L of imipenem)
Different strains of carbapenem-sensitive bacteria or carbapenem-resistant bacteria were cultured under two sets of conditions: • group 1: CHROMagar Orientation medium; and • group 2: CHROMagar Orientation medium in the presence of ertapenem (INVAZ; 0.0325; 0.065; 0.125; 0.25; 0.5 or 2 mg/L).

The format of data set [2] is physicochemical. The procedure: (§1) Different strains of carbapenem-sensitive bacteria or carbapenem-resistant bacteria were cultured under three different sets of conditions and with different spreading concentrations: • group 1: CHROMagar Orientation medium • group 2: CHROMagar Orientation medium in the presence of imipenem (MSD, TIENAM (includes 50% imipenem) 1 or 2 mg/L imipenem), and • group 3: CHROMagar Orientation medium in the presence of meropenem (0.12 or 0.25 mg/L).
(§2) Culture plates were then incubated at 37° C. and analysed regularly to establish the growth or absence of growth of bacteria.

Data set [3] deals with carbapenem-sensitive bacteria. As to the kind of experiment: Ageing tests on meropenem versus imipenem in CHROMagar Orientation medium. It is filed as cell-based. The method, then:
as §1, §2

In the case of `C[C@@H](O)[C@H]1C(=O)N2C(C(=O)O)=C(S[C@@H]3CN[C@H](C(=O)Nc4cccc(C(=O)O)c4)C3)[C@H](C)[C@H]12` [ertapenem], the “minimum concentration needed to eliminate carbapenem-sensitive flora (in words)” value in data set [1] (ertapenem 0.0325-2 mg/L tested) was “falls between that of meropenem and imipenem”. In data set [2], the “stability in an agar medium (duration)” value is 2 to 4 months and the “stability in an agar medium (in words)” value is on record as “good”.

Regarding `C[C@@H](O)[C@H]1C(=O)N2C(C(=O)O)=C(SCCN=CN)C[C@H]12` [imipenem], the “minimum concentration to eliminate carbapenem-sensitive flora” value in data set [1] was determined as 1 mg/L.

On to `C[C@@H](O)[C@H]1C(=O)N2C(C(=O)O)=C(S[C@@H]3CN[C@H](C(=O)N(C)C)C3)[C@H](C)[C@H]12` [meropenem], for which, in data set [1], the “minimum concentration of meropenem relative to necessary minimum concentration of imipenem” value was “about ten times lower” and the “minimum concentration to eliminate carbapenem-sensitive flora” value is 0.25 mg/L. In addition, in data set [3] (0.25 mg/L meropenem, 55 days in culture, 37° C.), the “inhibition of the growth of carbapenem-sensitive bacteria” value is recorded as “always higher than inhibition obtained at a concentration of 0.12 mg/L of meropenem after 36 days in culture”. Besides, the “effectiveness in terms of inhibition compared to imipenem” value in data set [3] (ageing test, CHROMagar Orientation medium) was “much more effective than imipenem”. Besides, in data set [2], the “stability in an agar medium (duration)” value is 2 to 4 months and the “stability in the used culture medium compared to imipenem” value is “much higher stability”.
